This passage reports luciferase activity increase results from patent US7811760B2, “Vector and method for detecting the change in transcription amount” (priority 2006, dated 2010).

Molecules are shown by their SMILES.

The subject of the test is ligand-dependent transcription factors (AhR, ER, and AR). Description: Reporter gene (luciferase) assay in Neuro2a cells carrying PGV-THp03 (SEQ ID No: 2). The format is cell-based, mouse. The settings on record: 10 nM, 30 hours, PGV-THp03, AhR-introduced Neuro2a. As for the experimental part: A vector (PGV-THp03) containing the upstream region (SEQ ID No: 2) ranging from about −300 to 0 position of the TH gene-coding region, which was prepared in Example 4, was used. Neuro2a was used as the cell.
Two kinds of vectors, pcDNA4-rAhR (Example 1) and pcDNA4/V5-His/lacZ (Invitrogen), were introduced into Neuro2a, together with PGV-THp03. pcDNA4-rAhR was introduced for constitutive expression of the SD-line rat AhR gene (SEQ ID No: 10) in the cell, and pcDNA4/V5-His/lacZ was introduced for normalization of the vector transfection efficiency.
The vectors were introduced into the cell by using LIPOFECTAMINE 2000 (Invitrogen). The cell was cultured on a 24-well plate, and the operation was performed according to the manual of Invitrogen. A total of […] of vectors (0.4 μg of PGV-THp03, 0.2 μg of pcDNA4-rAhR, and 0.2 μg of pcDNA4/V5-His/lacZ) suspended in 50 μl of OPTI-MEM medium and 2 μl of LIPOFECTAMINE 2000 suspended in 50 μl of OPTI-MEM medium were mixed, and incubated at room temperature for 20 minutes to form nucleic acid/LIPOFECTAMINE 2000 complex. The obtained suspension containing the complex was added to Neuro2a cell culture, which has been previously cultured overnight in 500 μl of DF1:1 medium (containing 10% fetal calf serum) (0.8×10^5 cells were seeded on previous day), to allow incorporation of the vectors into the cell. The cell was cultured additionally for 24 hours after transfection, for the purpose of improvement in vector incorporation efficiency and expression of the protein derived from the introduced vectors.
As the test substances, vinclozolin (10 μM), dimethyl phthalate (10 μM), benzopyrene (1 μM), and dioxin (TCDD) (10 nM) were used. After the transfection and the additional incubation for 24 hours, the medium was replaced with a fresh medium containing any one of the test substances, and the cell was cultured additionally for 30 hours. After 30 hours, the medium was removed from the 24-well plate, and the cell was washed with phosphate buffer twice. 100 μl of a protein extraction solution (manufactured by TOYO B-NET) was added to each well, and the cell suspension was stirred gently at room temperature for 15 minutes and then frozen at −80° C. The frozen solution was thawed at room temperature, and the resulting solution was recovered in a tube and diluted ten times with a protein extraction reagent containing 1 mg/ml bovine serum albumin luciferase and β-galactosidase activities in the diluted solution were measured, and the expression amount of the reporter gene was calculated as a relative luminescence intensity per 1 ng of β-galactosidase per second (RLU/sec/ng β-galactosidase).
A general note: Reporter assays use an easily measured gene product as a stand-in for the process of interest.

For the compound `Clc1cc2c(cc1Cl)Oc1cc(Cl)c(Cl)cc1O2` [TCDD, 2,3,7,8-tetrachlorodibenzo-p-dioxine], the luciferase activity increase entry is “approximately 1.4 times”.
